Values of other authors in patent US4610818A, “N-acyl derivatives of dipeptides, their preparation and their use in the therapy of disorders, and agents for this purpose” (BASF Aktiengesellschaft, priority 1982, dated 1986).

Tested on: tremor, rigor and akinesia
Conditions: Parkinson patients, MIF alone or in combination with L-dopa

With L-Pro-L-Leu-Gly-NH2 [MIF] as the substance, how does the “effect on tremor, rigor and akinesia” value read?
The value was “advantageous effect”.
